Where two headings read alike, the source gives them in different places. Marks after values point to notes of the source that are not given here.
How the values were obtained:
P. berghei hepatic stage = assay: In vitro activity against the hepatic stage of P. berghei infection (luciferase, Huh7 cells); type: cell-based, Plasmodium berghei; settings: for IC50: hepatic stage, Huh7 cells, 46 hpi
Protocol: (§1) The in vitro liver stage activity of gold complexes was assessed against P. berghei-infected Huh7 cells, as previously described. Briefly, Huh7 cells were cultured in RPMI-1640 medium supplemented with 10% (v/v) fetal bovine serum, 1% (v/v) penicillin/streptomycin, 1% (v/v) glutamine, 1% (v/v) non-essential amino acids and 10 mM HEPES. On the day prior to infection, Huh7 cells were seeded in 96-well plates at a density of approximately 3.1 × 10^4 cell/cm^2 and incubated at 37 °C, 5% CO2. Stock solutions of the complexes were initially prepared in DMSO and serially diluted in infection medium, i.e., culture medium supplemented with gentamicin (50 µg/mL) and fungizone (0.8 µg/mL), to obtain the test concentrations. As a control, DMSO was diluted in infection medium to a percentage that equals that of the highest compound concentrations tested. These dilutions were added to the cells in triplicates and incubated for 1 h at 37 °C, 5% CO2, after which 1 × 10^4 luciferase-expressing P. berghei sporozoites were added to each well. Plates were centrifuged at 1800× g for 5 min at room temperature and incubated for the duration of the assay. At 46 h post-infection (hpi), the impact of each compound concentration on cell viability was assessed by the Alamar Blue (Invitrogen, Buckinghamshire, UK) assay, according to the manufacturer’s recommendations. Infection was next assessed by bioluminescence, employing the Firefly Luciferase Assay Kit 2.0 (Biotium, Fremont, CA, USA), according to the manufacturer’s recommendations. For IC50 determination, nonlinear regression analysis was employed to fit the normalized results of the dose–response curves, using GraphPad Prism 8 (GraphPad software, La Jolla, CA, USA).

[1] = test system: A2780 ovarian cancer cells; assay: MTT cytotoxicity assay in A2780 (cisplatin sensitive) ovarian cancer cells; type: cell-based, human
Protocol: (§2) Cells were exposed to increasing concentrations of the complexes (0.01–100 μM) for 24 and/or 48 h, at 37 °C. The IC50 values were calculated from dose–response curves using the colorimetric MTT assay. […] Most complexes presented a similar cytotoxicity profile compared to Auranofin, but higher activity compared to Cisplatin, and, most importantly, were active in the Cisplatin-resistant OVCAR8 cells (Table 2).
(§3) The cytotoxic activity of the complexes was evaluated in the A2780 (cisplatin sensitive) (Sigma-Aldrich) and OVCAR8 (cisplatin resistant) (ATCC) ovarian cancer cells. Cells were grown in RPMI-1640 medium (Gibco, Thermo Fisher) supplemented with 10% fetal bovine serum (FBS) and were maintained at 37 °C in a humidified atmosphere with 5% CO2. The complexes were initially dissolved in DMSO and then in culture medium to prepare serial dilutions in the range 10^−9–10^−4 M. After 24 and/or 48 h incubation the cellular viability was measured by the colorimetric MTT assay, as previously described.

[2] = test system: OVCAR8 ovarian cancer cells; assay: MTT cytotoxicity assay in OVCAR8 (cisplatin resistant) ovarian cancer cells; type: cell-based, human; settings: 48 h incubation
Protocol: as §2, §3

S. aureus Newman [3] = assay: MIC determination, S. aureus; type: cell-based, Staphylococcus aureus; settings: MH broth, 22 h, 37 °C
Description: (§4) The bacterial strains Escherichia coli ATCC25922 and Staphylococcus aureus Newman were used in this work and maintained in Lennox Broth (LB) solid medium, composed of 10 g/L tryptone, 5 g/L yeast extract, 5 g/L NaCl and 20 g/L agar. The fungal strains Candida albicans SC5134 and C. glabrata CBS138 were used in this work and maintained in YPD solid medium, composed of 20 g/L glucose, 20 g/L peptone, 10 g/L yeast extract and 15 g/L agar. The strains were isolated from human infections.
(§5) The antimicrobial activity of the complexes towards the bacterial and fungal strains was assessed by the determination of the Minimal Inhibitory Concentration (MIC) of each complex towards the indicated microbial strains, based on standard methods, and as previously described. […] Serial 1:2 dilutions of stock solutions were prepared for each complex in Mueller–Hinton (MH) broth (Fluka Analytical) or RPMI-1640 medium (Sigma) supplemented with 20 g/L glucose and buffered with 0.165 M morpholinepropanesulphonic acid (RPMIG) to pH 7.0. Solutions prepared with MH were used for testing bacteria, while those prepared with RPMIG were used for testing fungi. For antibacterial activity assays, the final concentrations ranged from 250 to 0.24 μg/mL (when stock solution final concentration was 10 mg/mL), 125 μg/mL to 0.12 μg/mL (when stock solution final concentration was 5 mg/mL) and 62.5 to 0.06 μg/mL (when stock solution final concentration was 2.5 mg/mL). For antifungal assays, the final concentrations ranged from 125 μg/mL to 0.12 μg/mL (when stock solution final concentration was 10 mg/mL), 62.5 to 0.06 μg/mL (when stock solution final concentration was 5 mg/mL) and 31.25 to 0.03 μg/mL (when stock solution final concentration was 2.5 mg/mL). Then, 100 μL aliquots of adequately diluted bacterial suspensions of S. aureus Newman or E. coli ATCC 25922 were mixed with the MH serially diluted complexes aliquots to obtain 5 × 10^5 CFU/mL. In the case of fungi, cultures were diluted to obtain a final optical density of 0.025, measured at 530 nm (OD530). Bacterial suspensions were prepared from cultures grown for 5 h in MH broth at 37 °C and 250 rev·min^−1 and adequately diluted with fresh MH medium, while fungal suspensions were prepared from overnight cultures grown in YPD broth at 30 °C and 250 rev.min^−1 and diluted in buffered RPMIG. After 22 h of incubation at 37 °C (bacteria) or 24 h at 35 °C (fungi), the wells’ content was resuspended by pipetting and the OD640 (bacteria) or OD530 (fungi) were measured in a SPECTROstar Nano microplate reader (BMG Labtech).
(§6) At least three independent experiments were performed in duplicate for each complex under study. […] Positive (no complex) and negative controls (no inoculum) were performed for each experiment. The effect of 5% (V/V) DMSO on microbial growth was also assessed.

E. coli ATCC25922 [4] = assay: MIC determination, E. coli; type: cell-based, Escherichia coli; settings: MH broth, 22 h, 37 °C
Description: as §4, §5, §6

C. albicans SC5134 [5] = assay: MIC determination, C. albicans; type: cell-based, Candida albicans; settings: RPMIG, 24 h, 35 °C
Description: as §4, §5, §6

C. glabrata CBS138 [6] = assay: MIC determination, C. glabrata; type: cell-based, Candida glabrata; settings: RPMIG, 24 h, 35 °C
Description: as §4, §5, §6

[7] = test system: zebrafish (Danio rerio) embryos; assay: Acute toxicity (mortality) in zebrafish embryo; type: in vivo; settings: 72 hpf embryos, 0.1–10 μM, 48 h, in words
Description: Toxicity is a major challenge for drug development and is the leading cause of drug failure. Consequently, the evaluation of the potential toxicity represents a critical step in the development of new drugs. In this context, the zebrafish embryo represents a notable in vivo vertebrate model for studying the toxic effects of chemical compounds due to the small size, robustness, multiple progenies from a single mating, chemical permeability, easiness of observation and maintenance under laboratory conditions. In addition, the close phylogeny of zebrafish and mammals, with highly conserved signaling pathways, makes this species increasingly used and ideal for performing toxicological studies. Therefore, we evaluated the complexes acute toxicity by measuring mortality of 72 h post-fertilization (hpf) zebrafish embryos when incubated with increasing concentrations of the Au(III) complexes for 48 h.
To test the toxicological effect of the gold (III) complexes, zebrafish (Danio rerio) embryos at developmental stage of 72 h post-fertilization (hpf) were exposed to different concentrations of the target complexes and mortality was assessed for 48 h of treatment. […]

Huh7 cells = assay: Cell viability (cell confluency, Alamar Blue) of P. berghei-infected Huh7 cells; type: cell-based; settings: 5 µM, in words
Protocol: as §1

[8] = test system: A2780 ovarian cancer cells; design: method as in PMID 32391537; settings: MTT, starred values, cited from earlier work
S. aureus Newman [9] = test system: S. aureus Newman; design: method as in PMID 32391537; settings: complexes starred as Complex 1 / Complex 2; cited from earlier work
E. coli ATCC25922 [10] = test system: E. coli ATCC25922; design: method as in PMID 32391537; settings: complexes starred as Complex 1 / Complex 2; cited from earlier work
C. albicans SC5134 [11] = test system: C. albicans SC5134; design: method as in PMID 32391537; settings: complexes starred as Complex 1 / Complex 2; cited from earlier work
C. glabrata CBS138 [12] = test system: C. glabrata CBS138; design: method as in PMID 32391537; settings: complexes starred as Complex 1 / Complex 2; cited from earlier work
[13] = 24 h incubation, read-out: IC50 A2780, 24 h
[14] = 48 h incubation, read-out: IC50 A2780, 48 h

SMILES	activity against hepatic stage of P. berghei (positive control) (P. berghei hepatic stage; in words)	IC50 [1, 13]	IC50 [1, 14]	IC50 [2]	IC50 (P. berghei hepatic stage)	MIC S. aureus Newman (S. aureus Newman [3])	MIC E. coli ATCC25922 (E. coli ATCC25922 [4])	MIC C. albicans SC5134 (C. albicans SC5134 [5])	MIC C. glabrata CBS138 (C. glabrata CBS138 [6])	MIC C. albicans SC5134 (C. albicans SC5134 [5]; listed as [ N ][AuSPr(=S)])	toxicity in zebrafish embryo [7]	toxicity seen as lower cell confluency (Huh7 cells)	IC50 [8, 13]	IC50 [8, 14]	MIC S. aureus Newman (S. aureus Newman [9])	MIC E. coli ATCC25922 (E. coli ATCC25922 [10])	MIC C. albicans SC5134 (C. albicans SC5134 [11])	MIC C. glabrata CBS138 (C. glabrata CBS138 [12])
O=C1C(O)=C([C@H]2CC[C@H](c3ccc(Cl)cc3)CC2)C(=O)c2ccccc21 [Atovaquone, reference compound]	nanomolar-ranged activity																	
CCCn1c2c(sc1=S)[Se][Au-]1([Se]c3sc(=S)n(CCC)c3[Se]1)[Se]2.c1ccc([P+](c2ccccc2)(c2ccccc2)c2ccccc2)cc1 [[P][AuSePr(=S)]]		910 ± 400 nM	290 ± 100 nM	1570 ± 430 nM	544 ± 19.4 nM	>250 µg/mL	>250 µg/mL	>125 µg/mL	>125 µg/mL									
CCCn1c2c(sc1=S)[S][Au-]1([S]c3sc(=S)n(CCC)c3[S]1)[S]2.CC[N+](CC)(CC)CC [[N][AuSPr(=S)]]		2930 ± 810 nM	2280 ± 690 nM	2280 ± 190 nM		1.1 ± 0.2 µg/mL	>250 µg/mL	3.1 µg/mL	1.6 ± 0.8 µg/mL	3.1 ± 0.5 µg/mL								
CCn1c2c(sc1=O)[S][Au-]1([S]c3sc(=O)n(CC)c3[S]1)[S]2.c1ccc([P+](c2ccccc2)(c2ccccc2)c2ccccc2)cc1 [[P][AuSEt(=O)]]		860 ± 110 nM	310 ± 100 nM	1160 ± 210 nM		>125 µg/mL	>125 µg/mL	>62.5 µg/mL	>62.5 µg/mL		more toxic than [P][AuSEt(=S)]	some degree of toxicity						
CCN1C(=C(C#N)C#N)SC2=C1[S][Au-]1([S]2)[S]C2=C([S]1)N(CC)C(=C(C#N)C#N)S2.CC[N+](CC)(CC)CC [[N][AuSEt(=C(CN)2)]]		1320 ± 200 nM	170 nM	1480 ± 410 nM		>125 µg/mL	>125 µg/mL	>62.5 µg/mL	>62.5 µg/mL		more toxic than [N][AuSEt(=S)]	some degree of toxicity						
CCCn1c2c(sc1=[Se])[S][Au-]1([S]c3sc(=[Se])n(CCC)c3[S]1)[S]2.c1ccc([P+](c2ccccc2)(c2ccccc2)c2ccccc2)cc1 [[P][AuSPr(=Se)]]		620 ± 190 nM	550 ± 410 nM	800 ± 180 nM	643.9 ± 1.34 nM	>125 µg/mL	>125 µg/mL	62.5 µg/mL	>62.5 µg/mL			some degree of toxicity						
CC[N+](CC)(CC)CC.Cn1c2c(sc1=S)[S][Au-]1([S]c3sc(=S)n(C)c3[S]1)[S]2 [[N][AuSMe(=S)]]		1630 ± 400 nM	110 nM	2440 ± 780 nM	429 ± 39.6 nM	4.4 ± 0.2 µg/mL	>250 µg/mL	>62.5 *** µg/mL	2.9 ± 0.9 µg/mL			some degree of toxicity						
CCn1c2c(sc1=[Se])[Se][Au-]1([Se]c3sc(=[Se])n(CC)c3[Se]1)[Se]2.c1ccc([P+](c2ccccc2)(c2ccccc2)c2ccccc2)cc1 [[P][AuSeEt(=Se)]]		3960 ± 2210 nM	640 ± 190 nM	2420 ± 1520 nM	518 ± 246 nM	>125 µg/mL	>125 µg/mL	>62.5 µg/mL	>62.5 µg/mL									
CCCn1c2c(sc1=S)[S][Au-]1([S]c3sc(=S)n(CCC)c3[S]1)[S]2.c1ccc([P+](c2ccccc2)(c2ccccc2)c2ccccc2)cc1 [[P][AuSPr(=S)]]													4600 ± 1150 nM	520 ± 230 nM	>125 µg/mL	>125 µg/mL	>125 µg/mL	>125 µg/mL
